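Cultured in 96-well plates, cells were exposed to test compound for 48 hours across five concentrations. The concentration for 50% growth inhibition is given as GI50.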 Active and inactive are the calls of the source. Cut-off read from the data, not from the text of the source: active = GI50 up to about 1.1 µM and inactive = higher.
Columns and labels:
Test in all cases: NCI-60 cell line screen, 48 h
KM12 = system: KM12
MDA-MB-435 = system: MDA-MB-435
UACC-257 = system: UACC-257
EKVX = system: EKVX
SNB-19 = system: SNB-19
NCI-H226 = system: NCI-H226
CCRF-CEM = system: CCRF-CEM
SF-539 = system: SF-539
MCF7 = system: MCF7
OVCAR-5 = system: OVCAR-5
SW-620 = system: SW-620
SF-268 = system: SF-268
NCI-H522 = system: NCI-H522
SNB-75 = system: SNB-75
ACHN = system: ACHN
Malme-3M = system: Malme-3M
Hs-578T = system: Hs-578T
SK-OV-3 = system: SK-OV-3
UACC-62 = system: UACC-62
SF-295 = system: SF-295
CAKI-1 = system: CAKI-1
SK-MEL-5 = system: SK-MEL-5
SN12C = system: SN12C
COLO 205 = system: COLO 205
PC-3 = system: PC-3
LOX IMVI = system: LOX IMVI
HCT-116 = system: HCT-116
OVCAR-4 = system: OVCAR-4
786-0 = system: 786-0
M14 = system: M14
HCT-15 = system: HCT-15
A498 = system: A498
HOP-62 = system: HOP-62
TK-10 = system: TK-10
K562 = system: K562
RXF 393 = system: RXF 393
NCI/ADR-RES = system: NCI/ADR-RES
HOP-92 = system: HOP-92
A549 = system: A549
MDA-N = system: MDA-N
HT-29 = system: HT-29
IGROV-1 = system: IGROV-1
SK-MEL-2 = system: SK-MEL-2
MOLT-4 = system: MOLT-4
RPMI-8226 = system: RPMI-8226
OVCAR-3 = system: OVCAR-3
MDA-MB-231 = system: MDA-MB-231
OVCAR-8 = system: OVCAR-8
UO-31 = system: UO-31
T47D = system: T47D
SR = system: SR
BT-549 = system: BT-549
NCI-H23 = system: NCI-H23
NCI-H460 = system: NCI-H460
SK-MEL-28 = system: SK-MEL-28
U-251 = system: U-251
DU-145 = system: DU-145
HL-60 = system: HL-60
HCC 2998 = system: HCC 2998

`NCCOc1ccccn1` was tested, and the GI50 (KM12) was > 100 µM (inactive), the GI50 (MDA-MB-435) was > 100 µM (inactive) and the GI50 (UACC-257) was > 100 µM (inactive). The GI50 (EKVX) was > 100 µM (inactive), the GI50 (SNB-19) was > 100 µM (inactive) and the GI50 (NCI-H226) was > 100 µM (inactive). For the same compound, the GI50 (CCRF-CEM) was > 100 µM (inactive), the GI50 (SF-539) was > 100 µM (inactive) and the GI50 (MCF7) was > 100 µM (inactive). The GI50 (OVCAR-5) was > 100 µM (inactive), the GI50 (SW-620) was > 100 µM (inactive) and the GI50 (SF-268) was > 100 µM (inactive). For the same compound, the GI50 (NCI-H522) was > 100 µM (inactive), the GI50 (SNB-75) was > 100 µM (inactive) and the GI50 (ACHN) was > 100 µM (inactive). The GI50 (Malme-3M) was > 100 µM (inactive), the GI50 (Hs-578T) was > 100 µM (inactive) and the GI50 (SK-OV-3) was > 100 µM (inactive). The GI50 (UACC-62) was > 100 µM (inactive), the GI50 (SF-295) was > 100 µM (inactive) and the GI50 (CAKI-1) was > 100 µM (inactive). For the same compound, the GI50 (SK-MEL-5) was > 100 µM (inactive), the GI50 (SN12C) was > 100 µM (inactive) and the GI50 (COLO 205) was > 100 µM (inactive). For the same compound, the GI50 (PC-3) was > 100 µM (inactive), the GI50 (LOX IMVI) was > 100 µM (inactive) and the GI50 (HCT-116) was > 100 µM (inactive). For the same compound, the GI50 (OVCAR-4) was > 100 µM (inactive), the GI50 (786-0) was > 100 µM (inactive) and the GI50 (M14) was > 100 µM (inactive). For the same compound, the GI50 (HCT-15) was over 100 µM, the GI50 (A498) was > 100 µM (inactive) and the GI50 (HOP-62) was > 100 µM (inactive). For the same compound, the GI50 (TK-10) was > 100 µM (inactive), the GI50 (K562) was > 100 µM (inactive) and the GI50 (RXF 393) was > 100 µM (inactive). The GI50 (NCI/ADR-RES) was > 100 µM (inactive), the GI50 (HOP-92) was > 100 µM (inactive) and the GI50 (A549) was > 100 µM (inactive). For the same compound, the GI50 (MDA-N) was > 100 µM (inactive), the GI50 (HT-29) was > 100 µM (inactive) and the GI50 (IGROV-1) was > 100 µM (inactive). For the same compound, the GI50 (SK-MEL-2) was > 100 µM (inactive), the GI50 (MOLT-4) was > 100 µM (inactive) and the GI50 (RPMI-8226) was > 100 µM (inactive). The GI50 (OVCAR-3) was > 100 µM (inactive), the GI50 (MDA-MB-231) was > 100 µM (inactive) and the GI50 (OVCAR-8) was > 100 µM (inactive). The GI50 (UO-31) was > 100 µM (inactive), the GI50 (T47D) was > 100 µM (inactive) and the GI50 (SR) was > 100 µM (inactive). The GI50 (BT-549) was > 100 µM (inactive), the GI50 (NCI-H23) was > 100 µM (inactive) and the GI50 (NCI-H460) was > 100 µM (inactive). For the same compound, the GI50 (SK-MEL-28) was > 100 µM (inactive), the GI50 (U-251) was > 100 µM (inactive) and the GI50 (DU-145) was > 100 µM (inactive). For the same compound, the GI50 (HL-60) was > 100 µM (inactive).

`CCOC(=O)c1cc(C)n(CN(CCO)Cn2nc(C(=O)OCC)cc2C)n1` was tested, and the GI50 (KM12) was 31.6 µM (inactive), the GI50 (MDA-MB-435) was 39.7 µM (inactive) and the GI50 (UACC-257) was 29.2 µM (inactive). For the same compound, the GI50 (EKVX) was 34.2 µM (inactive), the GI50 (SNB-19) was 52.4 µM (inactive) and the GI50 (HCC 2998) was 11.8 µM (inactive). For the same compound, the GI50 (CCRF-CEM) was 18.8 µM (inactive), the GI50 (SF-539) was 17.7 µM (inactive) and the GI50 (MCF7) was 28.2 µM (inactive). The GI50 (OVCAR-5) was 19.5 µM (inactive), the GI50 (SW-620) was 28.3 µM (inactive) and the GI50 (SF-268) was 34.9 µM (inactive). For the same compound, the GI50 (NCI-H522) was 22.6 µM (inactive), the GI50 (ACHN) was 22.8 µM (inactive) and the GI50 (Malme-3M) was 27.1 µM (inactive). The GI50 (Hs-578T) was 97.7 µM (inactive), the GI50 (SK-OV-3) was > 100 µM (inactive) and the GI50 (UACC-62) was 17.8 µM (inactive). For the same compound, the GI50 (SF-295) was > 100 µM (inactive), the GI50 (CAKI-1) was 36.2 µM (inactive) and the GI50 (SK-MEL-5) was 37.2 µM (inactive). For the same compound, the GI50 (SN12C) was 27.4 µM (inactive), the GI50 (COLO 205) was 20.5 µM (inactive) and the GI50 (PC-3) was 28.4 µM (inactive). The GI50 (LOX IMVI) was 27.5 µM (inactive), the GI50 (HCT-116) was 18.3 µM (inactive) and the GI50 (OVCAR-4) was 33.4 µM (inactive). For the same compound, the GI50 (786-0) was 22 µM (inactive), the GI50 (M14) was 18.5 µM (inactive) and the GI50 (HCT-15) was 21.5 µM. For the same compound, the GI50 (A498) was > 100 µM (inactive), the GI50 (HOP-62) was 25.9 µM (inactive) and the GI50 (TK-10) was 80.2 µM (inactive). The GI50 (K562) was 26.9 µM (inactive), the GI50 (RXF 393) was 19.3 µM (inactive) and the GI50 (NCI/ADR-RES) was 18.7 µM (inactive). For the same compound, the GI50 (HOP-92) was 24.8 µM (inactive), the GI50 (A549) was 97.3 µM (inactive) and the GI50 (MDA-N) was 29.2 µM (inactive). For the same compound, the GI50 (HT-29) was 23.6 µM (inactive), the GI50 (IGROV-1) was 29.4 µM (inactive) and the GI50 (SK-MEL-2) was 19.9 µM (inactive). For the same compound, the GI50 (MOLT-4) was 31.8 µM (inactive), the GI50 (RPMI-8226) was 19.9 µM (inactive) and the GI50 (OVCAR-3) was 26 µM (inactive). For the same compound, the GI50 (MDA-MB-231) was 27.9 µM (inactive), the GI50 (OVCAR-8) was 22.7 µM (inactive) and the GI50 (UO-31) was 21.5 µM (inactive). For the same compound, the GI50 (T47D) was 24.5 µM (inactive), the GI50 (SR) was 28.6 µM (inactive) and the GI50 (BT-549) was 27.5 µM (inactive). For the same compound, the GI50 (NCI-H23) was 21.1 µM (inactive), the GI50 (NCI-H460) was 66.5 µM (inactive) and the GI50 (SK-MEL-28) was 40.7 µM (inactive). The GI50 (U-251) was 35.3 µM (inactive), the GI50 (DU-145) was 25.5 µM (inactive) and the GI50 (HL-60) was 34.2 µM (inactive).
